Series [1] concerns the target T1, 5-hydroxytryptamine receptor 2C (Homo sapiens, UniProt P28335).
T1 sequence (P28335 whole entry): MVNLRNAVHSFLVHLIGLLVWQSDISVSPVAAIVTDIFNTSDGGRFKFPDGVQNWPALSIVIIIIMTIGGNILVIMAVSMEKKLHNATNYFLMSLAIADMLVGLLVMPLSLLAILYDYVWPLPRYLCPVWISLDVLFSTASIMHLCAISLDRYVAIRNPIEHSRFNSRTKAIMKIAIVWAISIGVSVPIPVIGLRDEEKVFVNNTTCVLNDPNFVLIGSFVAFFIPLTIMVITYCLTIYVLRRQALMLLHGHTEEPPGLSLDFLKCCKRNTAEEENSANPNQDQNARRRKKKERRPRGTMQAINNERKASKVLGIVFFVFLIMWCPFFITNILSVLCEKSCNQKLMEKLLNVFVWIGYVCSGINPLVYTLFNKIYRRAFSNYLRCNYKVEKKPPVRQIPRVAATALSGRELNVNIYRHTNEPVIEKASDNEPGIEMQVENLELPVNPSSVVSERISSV
The series is described as follows: (§1) Agonist activity at recombinant human unedited 5HT2C receptor isoform INI expressed in Flp-In-293 cells assessed as increase in calcium influx measured for 300 secs by Fluo-4 dye based FLIPR assay. Format: functional, cell-based.

Series [2] deals with 5-HT2A receptor (Homo sapiens, UniProt P28223). Briefly: (§2) Agonist activity at recombinant human 5HT2A receptor expressed in Flp-In-293 cells assessed as increase in calcium influx measured for 300 secs by Fluo-4 dye based FLIPR assay relative to control. The series is classed as cell-based. The note with it: Flp-In-293 cells expressing recombinant human 5HT2A receptor.
Series [3] addresses T2, 5-hydroxytryptamine receptor 2C (Homo sapiens) (UniProt P28335).
T2 sequence (whole entry): T1 sequence (P28335 whole entry)
Briefly: Agonist activity at recombinant human unedited 5HT2C receptor isoform INI expressed in Flp-In-293 cells assessed as increase in calcium influx measured for 300 secs by Fluo-4 dye based FLIPR assay relative to control. Format: functional, cell-based.

Series [4] deals with T3, 5-hydroxytryptamine receptor 2A (Homo sapiens, UniProt P28223). The series is described as follows: Agonist activity at recombinant human 5HT2A receptor expressed in Flp-In-293 cells assessed as increase in calcium influx measured for 300 secs by Fluo-4 dye based FLIPR assay. The series is classed as cell-based.
Series [5] addresses 5-HT2B receptor (Homo sapiens, UniProt P41595). The series is described as follows: Agonist activity at recombinant human 5HT2B receptor expressed in Flp-In-293 cells assessed as increase in calcium influx measured for 300 secs by Fluo-4 dye based FLIPR assay relative to control. The conditions noted are these: Flp-In-293 cells expressing recombinant human 5HT2B receptor. The series is classed as cell-based.

The target of series [6] is T4, 5-hydroxytryptamine receptor 2B (Homo sapiens, UniProt P41595). Briefly: Agonist activity at recombinant human 5HT2B receptor expressed in Flp-In-293 cells assessed as increase in calcium influx measured for 300 secs by Fluo-4 dye based FLIPR assay. The series is classed as cell-based.
The target of series [7] is T4, 5-hydroxytryptamine receptor 2B. The series is described as follows: Agonist activity at recombinant human 5HT2B receptor expressed in Flp-In-293 cells assessed as increase in calcium influx up to 10 uM measured for 300 secs by Fluo-4 dye based FLIPR assay. Format: cell-based. The conditions noted are these: flp-in-293, 5 min.
Series [8] deals with T2, 5-hydroxytryptamine receptor 2C (Homo sapiens). The series is described as §1. Format: functional, cell-based.
Series [9] shares this target. Briefly: Agonist activity at recombinant human unedited 5HT2C receptor isoform INI expressed in Flp-In-293 cells assessed as increase in calcium influx up to 10 uM measured for 300 secs by Fluo-4 dye based FLIPR assay. The series is classed as functional, cell-based.
The target of series [10] is T3, 5-hydroxytryptamine receptor 2A. Briefly: Agonist activity at recombinant human 5HT2A receptor expressed in Flp-In-293 cells assessed as increase in calcium influx up to 10 uM measured for 300 secs by Fluo-4 dye based FLIPR assay. Format: cell-based. The note with it: flp-in-293, 5 min.
Series [11] is filed under the species Homo sapiens. Briefly: Selectivity ratio of EC50 for recombinant human 5HT2B receptor expressed in Flp-In-293 cells to EC50 for recombinant human unedited 5HT2C receptor isoform INI expressed in Flp-In-293 cells. Format: cell-based.
For series [12], the target named is T3, 5-hydroxytryptamine receptor 2A. The description is as §2. The series is classed as cell-based. The note with it: flp-in-293, 5 min.
Series [13] has as its target Serotonin 2 receptors; 5-HT2a & 5-HT2c (Homo sapiens) (UniProt P28223+P28335). The series is described as follows: Selectivity ratio of EC50 for recombinant human 5HT2A receptor expressed in Flp-In-293 cells to EC50 for recombinant human unedited 5HT2C receptor isoform INI expressed in Flp-In-293 cells. The series is classed as cell-based.

We go through 16 compounds from ChEMBL document CHEMBL4359900 (Eur J Med Chem, 2019).

Each structure is given as a SMILES string. Activity calls are given as the source filed them. The rule behind the calls is not given here.

5-HT2A receptor, sequence (P28223 whole entry): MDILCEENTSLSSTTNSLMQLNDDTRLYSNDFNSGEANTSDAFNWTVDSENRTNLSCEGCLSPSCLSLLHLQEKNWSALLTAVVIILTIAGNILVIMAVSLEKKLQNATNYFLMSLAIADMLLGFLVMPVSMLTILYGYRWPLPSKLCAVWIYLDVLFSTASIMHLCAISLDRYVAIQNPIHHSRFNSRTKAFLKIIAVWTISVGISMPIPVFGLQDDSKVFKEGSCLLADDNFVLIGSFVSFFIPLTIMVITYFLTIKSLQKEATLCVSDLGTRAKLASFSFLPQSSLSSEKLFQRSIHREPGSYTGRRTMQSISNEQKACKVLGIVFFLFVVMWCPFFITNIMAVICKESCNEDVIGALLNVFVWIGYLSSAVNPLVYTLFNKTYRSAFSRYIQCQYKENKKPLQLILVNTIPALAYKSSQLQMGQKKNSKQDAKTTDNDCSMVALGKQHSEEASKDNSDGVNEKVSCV
T3 sequence (P28223 whole entry): as above
T4 sequence (P41595 whole entry): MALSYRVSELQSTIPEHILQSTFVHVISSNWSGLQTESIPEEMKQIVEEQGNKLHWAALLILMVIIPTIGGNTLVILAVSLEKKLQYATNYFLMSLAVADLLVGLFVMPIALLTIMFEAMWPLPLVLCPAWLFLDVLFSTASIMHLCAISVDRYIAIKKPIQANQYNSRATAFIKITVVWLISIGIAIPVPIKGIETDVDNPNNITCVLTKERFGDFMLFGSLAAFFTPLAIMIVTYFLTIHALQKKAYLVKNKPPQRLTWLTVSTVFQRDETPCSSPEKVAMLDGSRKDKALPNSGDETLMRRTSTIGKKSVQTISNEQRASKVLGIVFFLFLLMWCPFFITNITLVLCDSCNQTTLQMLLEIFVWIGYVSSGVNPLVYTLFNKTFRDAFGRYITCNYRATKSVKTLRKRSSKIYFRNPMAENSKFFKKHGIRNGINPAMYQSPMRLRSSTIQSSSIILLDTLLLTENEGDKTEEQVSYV
5-HT2B receptor, sequence (P41595 whole entry): as above
Serotonin 2 receptors; 5-HT2a & 5-HT2c (Homo sapiens), sequence (P28223 whole entry, looked up, one chain of several, canonical isoform): as the sequence (P28223 whole entry) above

As usually defined, the Emax is the greatest response seen or fitted, relative to the assay's reference. Regarding `CNC[C@H]1C[C@]1(F)c1ccccc1`, the EC50 worked out at 291 nM in series [1], 156 nM in series [4] and 565 nM in series [6] (read-out: EC50). In addition, the maximal response (Emax) at 5 min stood at 40% in [2] and 42% in series [5]. Also, in series [3], the Emax amounted to 96%.

Take `COc1ccccc1CNCC1CC1(F)c1cc(F)ccc1OC` (racemic): the EC50 in [1] was 229 nM; in [4] it was 31 nM; in series [6] (read-out: EC50), 285 nM. In addition, the Emax at 5 min in [2] was 92%; in series [5], 61%. For the same compound, in series [3], the Emax is 103%.

In the case of `Cl.NC[C@@H]1C[C@@]1(F)c1ccccc1Br`, the Activity result in [7] and in [10] was “Not Active” each time. Further, the pEC50 entry in series [8] is “inactive”. For the same compound, the result in [9] was inactive.

As for `NC[C@H]1C[C@]1(F)c1cccc(F)c1`, the EC50 is 3 nM in [1], 3 nM in series [4], 2 nM in [6] (read-out: EC50) and 2.29 nM in [6] (read-out: pEC50 (converted)). Moreover, the results for the Emax at 5 min in series [2] and in [5] were 83% and 106%, respectively. The Emax in series [3] is 107%.

In the case of `NC[C@H]1C[C@]1(F)c1ccccc1`, the EC50 in [1] is 4.7 nM; in series [4], 10 nM; in [6] (read-out: EC50), 10 nM. The Emax at 5 min came out at 106% in series [2] and 104% in series [5]. For the same compound, in series [11], the Ratio EC50 came out at 2. The Emax in series [3] was found to be 98%.

For `NC[C@@H]1C[C@@]1(F)c1ccccc1`, the EC50 in [1] is 4110 nM; in [4] it was 1830 nM; in [6] (read-out: EC50) it was 903 nM. Moreover, the maximal effect (Emax) at 5 min in series [2] was 47%; in series [5] it was 77%. In [3], the Emax was 87%.

As for `COc1ccccc1CNC[C@H]1C[C@]1(F)c1ccccc1`, the EC50 worked out at 789 nM in [1], 320 nM in series [4] and 363 nM in [6] (read-out: EC50). Further, the Emax at 5 min in series [2] came out at 83%; in [5], 27%. For the same compound, the Emax in [3] amounted to 85%.

On to `NCCc1c[nH]c2ccc(O)cc12` [SEROTONIN], for which, in series [12], the Emax came to 100%.

For the compound `Cc1cccc([C@@]2(F)C[C@@H]2CN)c1.Cl`, the Activity result in series [7] is “Not Active”. For the same compound, the figures for the EC50 in series [1] and in [4] were 8 nM and 162 nM, respectively. In addition, the Emax at 5 min in [2] was determined as 71%. The Emax in [3] turned out to be 96%. In addition, the Ratio EC50 in series [13] was found to be 20.

As to `Cc1cccc([C@]2(F)C[C@H]2CN)c1.Cl`, the Activity result in series [7] and in series [10] was “Not Active” throughout. Besides, the EC50 in series [1] stood at 5250 nM. Besides, the Emax in series [3] came to 97%.

As to `COc1ccc(F)cc1C1(F)CC1CN` (racemic), the figures for the EC50 in series [1], in [4] and in [6] (read-out: EC50) were 598 nM, 352 nM and 116 nM, respectively. In addition, the Emax at 5 min amounted to 86% in series [2] and 79% in series [5]. In addition, the maximum response (Emax) in [3] is 90%.

Consider `Cl.NC[C@@H]1C[C@@]1(F)c1cccc(Cl)c1`, for which the Activity entry in series [7] and in series [10] was “Not Active” in each case. Further, in series [1], the EC50 stood at 1060 nM. Further, in [3], the Emax was 92%.

Consider `NCC1C(c2ccccc2)C1(F)F` (racemic), for which the EC50 in series [1] turned out to be 4430 nM; in [4], 3680 nM; in series [6] (read-out: EC50), 2350 nM. The Emax at 5 min is 43% in series [2] and 62% in series [5]. Moreover, the Emax in [3] was 82%.

`NC[C@H]1C[C@]1(F)c1cccc(Cl)c1`: the EC50 in series [1] was found to be 12 nM; in series [4], 23 nM; in series [6] (read-out: EC50), 22 nM. Further, the results for the Emax at 5 min in series [2] and in series [5] were 102% and 91%, respectively. In series [3], the Emax turned out to be 110%.

In the case of `Cl.NC[C@H]1C[C@]1(F)c1ccccc1Br`, in series [7], the Activity result is listed as “Not Active”. The EC50 in series [1] is 312 nM; in [4], 122 nM. The Emax at 5 min in [2] was 38%. Further, in [3], the Emax came out at 71%.

As to `Cl.NC[C@@H]1C[C@@]1(F)c1cccc(F)c1`, the Activity entry in series [7] and in series [10] was “Not Active” in each case. Moreover, in [8], the pEC50 result was “inactive”. Moreover, in series [9], the result was inactive.
